Test results as given in patent US20230148626A1, “PROTEIN-BASED FORMING AGENT, PREPARATION METHOD AND APPLICATION THEREOF” (NORTHEAST AGRICULTURAL UNIVERSITY, priority 2021, published 2023).

Key:
[1] = pH of the original solution of GA; assay type: physicochemical
α-La [2] = molecular target: T1, α-La (Bos taurus, UniProt P00711); assay: Binding isotherm: number of GA molecules bound per α-La molecule (endogenous fluorescence); settings: α-La 20 µmol/L, 25 °C
T1 construct: purchased Davisco Foods International
T1 sequence (P00711 20-142): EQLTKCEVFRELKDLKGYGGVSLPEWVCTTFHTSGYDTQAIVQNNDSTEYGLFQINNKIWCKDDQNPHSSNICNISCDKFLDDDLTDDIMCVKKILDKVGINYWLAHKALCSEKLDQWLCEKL
Experimental: Determination of the number of molecules of glycyrrhizic acid binding α-La: under 25 degree Celsius (°C) and fixed concentration of α-La of 20 µmol/L, adjusting the concentration of GA (0 - 15.0 mM) to obtain a α-La-GA mixed solution; calculating an average value (v) of each protein molecule bound to surfactant molecules by measuring the endogenous fluorescence (λex = 295 nm) of α-La-GA mixed solution, and obtaining a binding isotherm from the change of the average number with the total concentration of GA as shown in FIG. 2.
Binding isotherm allows a good understanding of protein-glycyrrhizic acid binding behavior, with the average value (v) of glycyrrhizic acid molecules bound per protein molecule as the response value being used as a criterion for determination. […] In the region II of 0.02<CGA<1.00 mM, the average value v of bound GA molecules increases slowly but obviously, where the maximum fluorescence intensity is decreased. In the region III between 1.00 mM and 15.00 mM, a large number of synergistic binding appears with the formation of protein aggregates. Moreover, the values v under different pH conditions vary greatly in regions II and III (see Table 1). Acidic conditions can induce more GA molecules to bind with α-La in the process of non-cooperative binding and cooperative binding, which may be due to the fact that the structure of α-La is unfolded under acidic conditions, prompting more hydrophobic groups to be exposed, thus making α-La binding with more GA molecules.

α-La [3] = molecular target: T1, α-La; assay: Aggregation of GA in the presence of α-La (ANS fluorescence, CAC breakpoint); assay type: physicochemical; settings: in the presence of α-La and ANS
Experimental: Measurement of aggregation: adding 8-Anilino-1-naphthalenesulfonic acid (ANS) solution (80 microliter (µL), 8 mmol/L) into 4 milliliter (mL) of the mixed solutions prepared in Embodiment 1 and Embodiment 2, respectively, and standing the solutions in the dark for 15 min; measuring the aggregation with a 1 centimeter (cm) light path cuvette, setting the excitation/emission slit of the instrument to 5.0/2.5 nano-meter (nm), the excitation wavelength at 355 nm, and recording the emission spectrum as 360 - 600 nm; recording the value of the most fluorescent intensity.
The threshold concentration required to form small molecular aggregates on the surface of protein is called critical aggregation concentration (CAC), which is usually lower than critical micelle concentration (CMC). […] For example, the minimum value of fluorescence of α-La is recorded under neutral condition and 1.0 mM GA, while the minimum value is observed after adding 2.0 mM GA in acid solution; this is because the pH of the original solution of GA is 4.3, while the carboxylate of GA is protonated and its electrostatic charge is shielded when the pH is 2.5, which leads to the decrease of repulsion between GA molecules and promotes self-assembly of molecules to form aggregates; GA is easier to polymerize under acidic conditions when the concentration of α-La is constant, that is, it has a smaller CAC.

In the case of `CC1(C)[C@@H](O[C@H]2O[C@H](C(=O)O)[C@@H](O)[C@H](O)[C@H]2O[C@@H]2O[C@H](C(=O)O)[C@@H](O)[C@H](O)[C@H]2O)CC[C@]2(C)[C@H]3C(=O)C=C4[C@@H]5C[C@@](C)(C(=O)O)CC[C@]5(C)CC[C@@]4(C)[C@]3(C)CC[C@@H]12` [GA, glycyrrhizic acid], the “pH of the original solution of GA” value [1] is reported as 4.3, the “average value v of GA molecules bound per protein molecule” value (α-La [2]; pH 2.5, characteristic area I, CGA 0 - 0.20) is reported as 0 - 8.96 and the “average value v of GA molecules bound per protein molecule” value (α-La [2]; pH 2.5, characteristic area II, CGA 0.20 - 1.00) is reported as 8.96 - 48.95. For the same compound, the “average value v of GA molecules bound per protein molecule” value (α-La [2]; pH 7.0, characteristic area I, CGA 0 - 0.20) was 0 - 5.22, the “average value v of GA molecules bound per protein molecule” value (α-La [2]; pH 7.0, characteristic area II, CGA 0.20-1.00) was 5.22 - 39.49 and the “average value v of GA molecules bound per protein molecule” value (α-La [2]; pH 7.0, characteristic area III, CGA 1.00-15.00) was 39.49 - 998.19. For the same compound, the “GA concentration at minimum value of fluorescence of α-La (breakpoint, CAC)” value (α-La [3]; acid solution) was 2.0 mM and the “GA concentration at minimum value of fluorescence of α-La (breakpoint, CAC)” value (α-La [3]; neutral condition) was 1.0 mM.
